Data set [1] concerns the target T1, Glucose-dependent insulinotropic receptor (Homo sapiens, UniProt Q8TDV5).
T1 sequence (Q8TDV5 whole entry): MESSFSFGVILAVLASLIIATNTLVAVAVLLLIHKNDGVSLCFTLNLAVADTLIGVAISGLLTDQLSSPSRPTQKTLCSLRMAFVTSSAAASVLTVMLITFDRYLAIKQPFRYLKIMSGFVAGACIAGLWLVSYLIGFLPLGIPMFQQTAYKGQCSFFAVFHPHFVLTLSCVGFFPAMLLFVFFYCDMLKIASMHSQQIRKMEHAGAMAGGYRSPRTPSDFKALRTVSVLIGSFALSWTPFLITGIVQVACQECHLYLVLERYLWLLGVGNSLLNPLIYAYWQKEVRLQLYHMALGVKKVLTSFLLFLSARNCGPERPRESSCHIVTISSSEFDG
Kind of data set: Agonist activity at human GPR119 expressed in CHOK1 cells co-expressing CRE-luciferase incubated for 4 hrs by luciferase reporter gene assay. Type of data set: functional, cell-based. The settings on record: for pEC50: read-out: EC50.

Data set [2] concerns the target T2, Glucose-dependent insulinotropic receptor (Homo sapiens) (UniProt Q8TDV5).
T2 sequence (whole entry): T1 sequence (Q8TDV5 whole entry)
Put plainly: Agonist activity at human GPR119 expressed in CHOK1 cells co-expressing CRE-luciferase incubated for 4 hrs by luciferase reporter gene assay relative to 100 nM AR231453. Type of data set: functional, cell-based.

Data set [3] can be described thus: Clearance in human liver microsomes. Type of data set: ADME, microsome. The note with it: read-out: CLH. (In general: Liver microsomes are vesicles of endoplasmic reticulum, rich in cytochrome P450 enzymes.)
Data set [4] is described as follows: Clearance in mouse liver microsomes. The data set is classed as ADME, microsome. The settings on record: read-out: CLH.
The nature of data set [5]: Drug metabolism in human liver microsomes assessed as CYP450-mediated metabolism of ethyl group. The data set is classed as ADME.
Data set [6] can be described thus: Drug metabolism in mouse liver microsomes assessed as CYP450-mediated metabolism of ethyl group. The data set is classed as ADME.
Data set [7] addresses T1, Glucose-dependent insulinotropic receptor. Kind of data set: Agonist activity at human GPR119 expressed in HEK293 cells by luciferase reporter gene assay. The data set is classed as cell-based. Background: Reporter assays use an easily measured gene product as a stand-in for the process of interest.
In data set [8] the test system is Mus musculus. Kind of data set: Reduction in blood glucose AUC in C57BL/6N mouse at 10 mg/kg dosed 25 mins before glucose challenge and measured over 120 mins post glucose […] by oral glucose tolerance test. The data set is classed as functional. Details: scale not given: the % may be the effect or the level left; call rule not given here.
Data set [9] is described as follows: Plasma clearance in mouse at 0.5 mg/kg, iv. Type of data set: ADME, organism-based.
A short description of data set [10]: Volume of distribution at steady state in mouse at 0.5 mg/kg, iv. Type of data set: ADME, organism-based. The settings on record: in vivo, read-out: Vdss.
The nature of data set [11]: Half life in mouse at 0.5 mg/kg, iv. The data set is classed as ADME, organism-based. The note with it: in vivo.
Data set [12] in a line: Cmax in mouse at 10 mg/kg, po. The note with it: in vivo. Details: dose 10 mg/kg, route oral. The data set is classed as ADME, organism-based.
Data set [13] in a line: AUC in mouse at 10 mg/kg, po. The settings on record: in vivo. Type of data set: ADME, organism-based.
The nature of data set [14]: Oral bioavailability in mouse at 10 mg/kg. The data set is classed as ADME, organism-based. The note with it: in vivo.
A further data set has as its system CHO-K1. Put plainly: Cytotoxicity in CHOK1 cells by CCK8 assay. The data set is classed as cell-based. The note with it: Cricetulus griseus. For orientation: Tetrazolium assays rely on reduction of a dye to a coloured formazan, in cell work by metabolically active cells.
In data set [15] the test system is Mus musculus. Put plainly: Reduction in blood glucose AUC in C57BL/6N mouse at 30 mg/kg dosed 25 mins before glucose challenge and measured over 120 mins post glucose […] by oral glucose tolerance test. Type of data set: functional. Details: scale not given: the % may be the effect or the level left.

pEC50, pIC50: −log10 of the molar value.

As usually defined, the pEC50 is the negative decadic logarithm of the EC50, by convention in mol/L. As usually defined, the Emax is the greatest response seen or fitted, relative to the assay's reference. `Cc1cnc(N2CCC(c3coc4c(N5CCc6cc(S(C)(=O)=O)ccc65)ncnc34)CC2)nc1`: the pEC50 in data set [1] is 6.60. The Emax in data set [2] came to 159%. The microsomal CLint is 349 µL/min/mg in data set [3] and 145 µL/min/mg in [4].
For the compound `CN(c1ccc(S(C)(=O)=O)cc1F)c1ncnc2c(C3CCN(C(=O)OC(C)(C)C)CC3)coc12`, in [1], the pEC50 is less than 6.00. In [2], this compound registered an Emax of 6%.
Turning to `CS(=O)(=O)c1ccc2c(c1)CCN2c1ncnc2c(C3CCN(c4ncc(O)cn4)CC3)coc12`, the pEC50 in data set [1] was 6.41. In addition, in data set [2], the Emax came out at 145%. Also, the values for the microsomal CLint in data set [3] and in [4] were 132 µL/min/mg and 107 µL/min/mg, respectively.
With `CC(O)c1cnc(N2CCC(c3coc4c(N5CCc6cc(S(C)(=O)=O)ccc65)ncnc34)CC2)nc1` (configuration not stated), the negative-log EC50 (pEC50) in data set [1] is 6.23. In data set [2], this compound yielded an Emax of 33%. Further, the microsomal CLint in data set [3] was 102 µL/min/mg; in data set [4], 66 µL/min/mg.
On to `CC(C)(C)OC(=O)N1CCC(c2csc3c(Nc4ccc(S(C)(=O)=O)cc4F)ncnc23)CC1`, for which the pEC50 in [1] was 7.10. Further, the maximal response (Emax) in data set [2] turned out to be 82%.
`CCc1cnc(N2CCC(c3coc4c(N5CCc6cc(S(C)(=O)=O)ccc65)ncnc34)CC2)nc1`: in data set [1], the pEC50 is 7.39. The Emax in [2] amounted to 154%. In addition, the microsomal CLint in data set [3] worked out at 412 µL/min/mg; in data set [4], 187 µL/min/mg. In addition, the Drug metabolism entry in data set [5] and in data set [6] was “Metabolite_Detected” throughout.
Turning to `CC(C)(C)OC(=O)N1CCC(c2coc3c(N4CCCc5cc(S(C)(=O)=O)ccc54)ncnc23)CC1`, the negative logarithm of the EC50 (pEC50) in data set [1] was 6.10. For the same compound, in data set [2], the Emax is 1%.
`CC(C)(C)OC(=O)N1CCC(c2coc3c(N4c5ccc(S(C)(=O)=O)cc5CC4(C)C)ncnc23)CC1`: in [1], the EC50 result is given as “Not Active”.
In the case of `Cn1cc(C2CCN(C(=O)OC(C)(C)C)CC2)c2ncnc(Nc3ccc(S(C)(=O)=O)cc3F)c21`, the pEC50 in data set [1] was less than 6.00. The compound also had an Emax in data set [2] of 3%.
`CC(=O)c1cnc(N2CCC(c3coc4c(N5CCc6cc(S(C)(=O)=O)ccc65)ncnc34)CC2)nc1`: the pEC50 in data set [1] is 7.11. The Emax in [2] worked out at 12%. Besides, the microsomal CLint in [3] is 74 µL/min/mg; in [4] it was 154 µL/min/mg.
For `CC(C)(C)OC(=O)N1CCC(c2noc3c(Nc4ccc(S(C)(=O)=O)cc4F)ncnc23)CC1`, the pEC50 in data set [1] is 6.45. The compound also yielded an Emax in data set [2] of 137%.
For `CC(C)(C)OC(=O)N1CCC(c2coc3c(N4CC(C)(C)c5cc(S(C)(=O)=O)ccc54)ncnc23)CC1`, the EC50 entry in data set [1] is “Not Active”.
For the compound `CS(=O)(=O)c1ccc2c(c1)CCN2c1ncnc2c(C3CCN(c4ncccn4)CC3)coc12`, the pEC50 in data set [1] is 6.29. The same compound returned an Emax in data set [2] of 196%.
Compound `CC(C)(C)OC(=O)N1CCC(n2nnc3c(Nc4ccc(S(C)(=O)=O)cc4F)ncnc32)CC1` showed a pEC50 in data set [7] of 7.72.
Take `CC(C)(C)OC(=O)N1CCC(c2coc3c(N4CCc5cc(S(C)(=O)=O)ccc54)ncnc23)CC1`: the pEC50 in data set [1] was 7.28. For the same compound, in [2], the Emax worked out at 123%. The figures for the microsomal CLint in data set [3] and in data set [4] were 550 µL/min/mg and 508 µL/min/mg, respectively.
As to `CS(=O)(=O)c1ccc2c(c1)CCN2c1ncnc2c(C3CCN(c4ncc(F)cn4)CC3)coc12`, the pEC50 in data set [1] was 6.70. Moreover, the Emax in [2] worked out at 229%. The microsomal CLint came to 257 µL/min/mg in data set [3] and 154 µL/min/mg in data set [4].
Consider `CC(C)(C)OC(=O)N1CCC(c2c[nH]c3c(Nc4ccc(S(C)(=O)=O)cc4F)ncnc23)CC1`, for which the pEC50 in data set [1] is less than 6.00. The compound also yielded an Emax in data set [2] of 9%.
The clearance is a measure of how efficiently the substance is removed, as volume per time. The half-life is how long it takes for the measured level to halve. For orientation: Cmax means the highest concentration seen after dosing. The term AUC denotes concentration integrated over time. Usually bioavailability stands for the share of a dose that reaches the circulation, judged against a reference dose that is usually intravenous. What is called pIC50 is the negative decadic logarithm of the IC50, by convention in mol/L. As to `CS(=O)(=O)c1ccc2c(c1)CCN2c1ncnc2c(C3CCN(c4ncc(Cl)cn4)CC3)coc12`, the pEC50 in data set [1] was 7.38. Moreover, the Emax in data set [2] worked out at 117%. Further, the microsomal CLint in [3] is 113 µL/min/mg; in [4] it was 108 µL/min/mg. This compound showed an Activity in the data set on Mus musculus [8] of 33%. The clearance in data set [9] came to 6.5 mL/min/kg. For the same compound, the Vd in [10] is 2.3 L/kg. In [11], this compound showed a half-life of 5.1 h. In data set [12], this compound gave a Cmax of 2020 ng/mL. For the same compound, the area under the curve (AUC) in data set [13] came out at 9390 ng·h/mL. Besides, the bioavailability in data set [14] is 37%. Also, in the data set on CHO-K1, the negative-log IC50 (pIC50) is less than 5.00.
In turn, `CCCc1cnc(N2CCC(n3nnc4c(Nc5ccc(S(C)(=O)=O)cc5F)ncnc43)CC2)nc1` showed a pEC50 in [7] of 7.09.
In the data set on Mus musculus [15], `CC(C)(C)OC(=O)N1CCC(c2coc3c(Nc4ccc(S(C)(=O)=O)cc4F)ncnc23)CC1` registered an Activity of 13%. Also, the pEC50 in data set [1] was 6.89. Also, the maximal response (Emax) in data set [2] is 123%.
With `COc1cnc(N2CCC(c3coc4c(N5CCc6cc(S(C)(=O)=O)ccc65)ncnc34)CC2)nc1`, in data set [1], the negative logarithm of the EC50 (pEC50) was 6.51. The same compound displayed an Emax in data set [2] of 186%. The microsomal CLint in data set [3] is 255 µL/min/mg; in data set [4] it was 189 µL/min/mg.

Source of the values: ChEMBL document CHEMBL4052704, “Optimization of a novel series of potent and orally bioavailable GPR119 agonists” (Bioorg Med Chem Lett, 2017).
